Measured values from US8192962B2, “Processes for detecting toxic substances” (Daikin Industries, Ltd., priority 2001, dated 2012).

Tested on: Genes belonging to other category
Assay: DNA chip mRNA expression in yeast, genes belonging to other category (Table 9)
Assay type: cell-based, Saccharomyces cerevisiae S288C
Outline: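 Value is the scanned fluorescence intensity ratio of exposed versus chemical-free cells. Log-phase S288C yeast in YPD at 25° C. received one toxic substance for two hours, dosed to slow growth without killing; Cy3/Cy5-labeled cDNA from oligo-dT-purified mRNA was hybridized to a whole-genome chip at 65° C.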

O=[N+]([O-])c1cc[n+]([O-])c2ccccc12 [(5), 4-nitroquinolin-N-oxide]
The level of expressed mRNA in the presence of chemical substance/The level of expressed mRNA in the absence of chemical substance (yeast gene YHR169W): 1.1 | The level of expressed mRNA in the presence of chemical substance/The level of expressed mRNA in the absence of chemical substance (yeast gene YHR185C): 1.4 | The level of expressed mRNA in the presence of chemical substance/The level of expressed mRNA in the absence of chemical substance (yeast gene YHR195W): 1.5 | The level of expressed mRNA in the presence of chemical substance/The level of expressed mRNA in the absence of chemical substance (yeast gene YIL010W): 1.2 | The level of expressed mRNA in the presence of chemical substance/The level of expressed mRNA in the absence of chemical substance (yeast gene YIL076W): 1.8 | The level of expressed mRNA in the presence of chemical substance/The level of expressed mRNA in the absence of chemical substance (yeast gene YIL123W): 0.6 | The level of expressed mRNA in the presence of chemical substance/The level of expressed mRNA in the absence of chemical substance (yeast gene YIL140W): 0.8 | The level of expressed mRNA in the presence of chemical substance/The level of expressed mRNA in the absence of chemical substance (yeast gene YJL035C): 1.4 | The level of expressed mRNA in the presence of chemical substance/The level of expressed mRNA in the absence of chemical substance (yeast gene YJL053W): 1.1 | The level of expressed mRNA in the presence of chemical substance/The level of expressed mRNA in the absence of chemical substance (yeast gene YJL073W): 1.2 | The level of expressed mRNA in the presence of chemical substance/The level of expressed mRNA in the absence of chemical substance (yeast gene YJL089W): 1.1 | The level of expressed mRNA in the presence of chemical substance/The level of expressed mRNA in the absence of chemical substance (yeast gene YJL116C): 1.3 | The level of expressed mRNA in the presence of chemical substance/The level of expressed mRNA in the absence of chemical substance (yeast gene YJL164C): 1.1 | The level of expressed mRNA in the presence of chemical substance/The level of expressed mRNA in the absence of chemical substance (yeast gene YJL210W): 0.6 | The level of expressed mRNA in the presence of chemical substance/The level of expressed mRNA in the absence of chemical substance (yeast gene YJR004C): 1.1 | The level of expressed mRNA in the presence of chemical substance/The level of expressed mRNA in the absence of chemical substance (yeast gene YJR086W): 1.3 | The level of expressed mRNA in the presence of chemical substance/The level of expressed mRNA in the absence of chemical substance (yeast gene YJR117W): 1.2 | The level of expressed mRNA in the presence of chemical substance/The level of expressed mRNA in the absence of chemical substance (yeast gene YKL007W): 1.0 | The level of expressed mRNA in the presence of chemical substance/The level of expressed mRNA in the absence of chemical substance (yeast gene YKL008C): 0.9 | The level of expressed mRNA in the presence of chemical substance/The level of expressed mRNA in the absence of chemical substance (yeast gene YKL013C): 1.9 | The level of expressed mRNA in the presence of chemical substance/The level of expressed mRNA in the absence of chemical substance (yeast gene YKL039W): 0.7 | The level of expressed mRNA in the presence of chemical substance/The level of expressed mRNA in the absence of chemical substance (yeast gene YKL041W): 1.3 | The level of expressed mRNA in the presence of chemical substance/The level of expressed mRNA in the absence of chemical substance (yeast gene YKL096W): 0.6 | The level of expressed mRNA in the presence of chemical substance/The level of expressed mRNA in the absence of chemical substance (yeast gene YKL117W): 1.8 | The level of expressed mRNA in the presence of chemical substance/The level of expressed mRNA in the absence of chemical substance (yeast gene YKL165C): 0.9 | The level of expressed mRNA in the presence of chemical substance/The level of expressed mRNA in the absence of chemical substance (yeast gene YKL193C): 1.1 | The level of expressed mRNA in the presence of chemical substance/The level of expressed mRNA in the absence of chemical substance (yeast gene YKR076W): 1.0 | The level of expressed mRNA in the presence of chemical substance/The level of expressed mRNA in the absence of chemical substance (yeast gene YLR120C): 1.1 | The level of expressed mRNA in the presence of chemical substance/The level of expressed mRNA in the absence of chemical substance (yeast gene YLR136C): 1.6 | The level of expressed mRNA in the presence of chemical substance/The level of expressed mRNA in the absence of chemical substance (yeast gene YLR178C): 1.0 | The level of expressed mRNA in the presence of chemical substance/The level of expressed mRNA in the absence of chemical substance (yeast gene YLR250W): 1.4 | The level of expressed mRNA in the presence of chemical substance/The level of expressed mRNA in the absence of chemical substance (yeast gene YLR327C): 1.3 | The level of expressed mRNA in the presence of chemical substance/The level of expressed mRNA in the absence of chemical substance (yeast gene YLR356W): 1.1 | The level of expressed mRNA in the presence of chemical substance/The level of expressed mRNA in the absence of chemical substance (yeast gene YLR362W): 1.5 | The level of expressed mRNA in the presence of chemical substance/The level of expressed mRNA in the absence of chemical substance (yeast gene YLR391W): 1.2 | The level of expressed mRNA in the presence of chemical substance/The level of expressed mRNA in the absence of chemical substance (yeast gene YLR429W): 1.4 | The level of expressed mRNA in the presence of chemical substance/The level of expressed mRNA in the absence of chemical substance (yeast gene YMR004W): 1.0 | The level of expressed mRNA in the presence of chemical substance/The level of expressed mRNA in the absence of chemical substance (yeast gene YMR094W): 0.9 | The level of expressed mRNA in the presence of chemical substance/The level of expressed mRNA in the absence of chemical substance (yeast gene YMR104C): 0.7 | The level of expressed mRNA in the presence of chemical substance/The level of expressed mRNA in the absence of chemical substance (yeast gene YMR219W): 1.6 | The level of expressed mRNA in the presence of chemical substance/The level of expressed mRNA in the absence of chemical substance (yeast gene YMR226C): 0.9 | The level of expressed mRNA in the presence of chemical substance/The level of expressed mRNA in the absence of chemical substance (yeast gene YMR238W): 1.5 | The level of expressed mRNA in the presence of chemical substance/The level of expressed mRNA in the absence of chemical substance (yeast gene YMR275C): 0.7 | The level of expressed mRNA in the presence of chemical substance/The level of expressed mRNA in the absence of chemical substance (yeast gene YMR276W): 1.3 | The level of expressed mRNA in the presence of chemical substance/The level of expressed mRNA in the absence of chemical substance (yeast gene YMR297W): 0.6 | The level of expressed mRNA in the presence of chemical substance/The level of expressed mRNA in the absence of chemical substance (yeast gene YNL006W): 0.9 | The level of expressed mRNA in the presence of chemical substance/The level of expressed mRNA in the absence of chemical substance (yeast gene YNL007C): 1.2 | The level of expressed mRNA in the presence of chemical substance/The level of expressed mRNA in the absence of chemical substance (yeast gene YNL093W): 1.2 | The level of expressed mRNA in the presence of chemical substance/The level of expressed mRNA in the absence of chemical substance (yeast gene YNL333W): 1.5 | The level of expressed mRNA in the presence of chemical substance/The level of expressed mRNA in the absence of chemical substance (yeast gene YNR010W): 1.8 | The level of expressed mRNA in the presence of chemical substance/The level of expressed mRNA in the absence of chemical substance (yeast gene YNR069C): 1.4 | The level of expressed mRNA in the presence of chemical substance/The level of expressed mRNA in the absence of chemical substance (yeast gene YOL013C): 0.7 | The level of expressed mRNA in the presence of chemical substance/The level of expressed mRNA in the absence of chemical substance (yeast gene YOL109W): 1.0 | The level of expressed mRNA in the presence of chemical substance/The level of expressed mRNA in the absence of chemical substance (yeast gene YOL164W): 1.6 | The level of expressed mRNA in the presence of chemical substance/The level of expressed mRNA in the absence of chemical substance (yeast gene YOR036W): 1.1 | The level of expressed mRNA in the presence of chemical substance/The level of expressed mRNA in the absence of chemical substance (yeast gene YOR117W): 1.2 | The level of expressed mRNA in the presence of chemical substance/The level of expressed mRNA in the absence of chemical substance (yeast gene YOR124C): 1.1 | The level of expressed mRNA in the presence of chemical substance/The level of expressed mRNA in the absence of chemical substance (yeast gene YOR132W): 1.1 | The level of expressed mRNA in the presence of chemical substance/The level of expressed mRNA in the absence of chemical substance (yeast gene YOR157C): 0.7 | The level of expressed mRNA in the presence of chemical substance/The level of expressed mRNA in the absence of chemical substance (yeast gene YOR181W): 0.7 | The level of expressed mRNA in the presence of chemical substance/The level of expressed mRNA in the absence of chemical substance (yeast gene YOR185C): 1.2 | The level of expressed mRNA in the presence of chemical substance/The level of expressed mRNA in the absence of chemical substance (yeast gene YOR198C): 0.8 | The level of expressed mRNA in the presence of chemical substance/The level of expressed mRNA in the absence of chemical substance (yeast gene YOR259C): 2.0 | The level of expressed mRNA in the presence of chemical substance/The level of expressed mRNA in the absence of chemical substance (yeast gene YOR261C): 1.5 | The level of expressed mRNA in the presence of chemical substance/The level of expressed mRNA in the absence of chemical substance (yeast gene YOR288C): 1.1 | The level of expressed mRNA in the presence of chemical substance/The level of expressed mRNA in the absence of chemical substance (yeast gene YOR327C): 1.0 | The level of expressed mRNA in the presence of chemical substance/The level of expressed mRNA in the absence of chemical substance (yeast gene YOR355W): 1.0 | The level of expressed mRNA in the presence of chemical substance/The level of expressed mRNA in the absence of chemical substance (yeast gene YOR383C): 0.9 | The level of expressed mRNA in the presence of chemical substance/The level of expressed mRNA in the absence of chemical substance (yeast gene YPL010W): 1.4 | The level of expressed mRNA in the presence of chemical substance/The level of expressed mRNA in the absence of chemical substance (yeast gene YPL089C): 1.4 | The level of expressed mRNA in the presence of chemical substance/The level of expressed mRNA in the absence of chemical substance (yeast gene YPL109C): 1.2 | The level of expressed mRNA in the presence of chemical substance/The level of expressed mRNA in the absence of chemical substance (yeast gene YPL149W): 0.8 | The level of expressed mRNA in the presence of chemical substance/The level of expressed mRNA in the absence of chemical substance (yeast gene YPL154C): 1.2 | The level of expressed mRNA in the presence of chemical substance/The level of expressed mRNA in the absence of chemical substance (yeast gene YPR080W): 1.4 | The level of expressed mRNA in the presence of chemical substance/The level of expressed mRNA in the absence of chemical substance (yeast gene YPR103W): 1.7 | The level of expressed mRNA in the presence of chemical substance/The level of expressed mRNA in the absence of chemical substance (yeast gene YPR108W): 1.3
